21 molecules from ChEMBL document CHEMBL4806956, “1-heteroaryl-indoline-4-carboxamides as modulators of gpr52 useful for the treatment or prevention of disorders related thereto” (2020) can be followed below.

Activity calls are given as the source filed them. No cut-off for these calls is given here.

For orientation: inhibition means the share of the control response that was lost under treatment. Usually ED50 stands for the midpoint of the dose-response relation.

Data set [1] is described as follows: Ratio of drug level in brain to plasma in C57BL/6 mouse at 10 mg/kg, po measured after 60 mins by LC/MS/MS analysis. Particulars: brain and plasma, read-out: BPR. It is filed as ADME, organism-based.
In data set [2] the target is G-protein coupled receptor 52 (Mus musculus) (UniProt P0C5J4). Kind of data set: In vivo agonist activity at GPR52 in C57BL/6 mouse assessed as inhibition of basal locomotor activity at 10 mg/kg, po measured for 60 mins starting at 15 mins post-drug challenge. It is filed as functional, organism-based. The settings on record: time 75.0 min.
Chain of G-protein coupled receptor 52 (Mus musculus) (P0C5J4 whole entry): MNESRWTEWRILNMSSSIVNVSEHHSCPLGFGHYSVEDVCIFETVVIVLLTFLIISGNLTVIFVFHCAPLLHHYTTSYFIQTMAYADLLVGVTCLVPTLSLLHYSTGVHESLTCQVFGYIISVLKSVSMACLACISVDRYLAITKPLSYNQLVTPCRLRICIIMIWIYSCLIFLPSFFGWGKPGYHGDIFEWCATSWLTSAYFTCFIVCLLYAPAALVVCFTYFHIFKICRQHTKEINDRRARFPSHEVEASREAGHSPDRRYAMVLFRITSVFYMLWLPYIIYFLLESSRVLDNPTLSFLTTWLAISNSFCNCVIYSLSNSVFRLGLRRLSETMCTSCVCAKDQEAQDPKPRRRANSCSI
Data set [3] can be described thus: Ratio of drug level in brain to plasma in C57BL/6 mouse at 3 mg/kg, po measured after 60 mins by LC/MS/MS analysis. Format: ADME, organism-based. Particulars: brain and plasma, read-out: BPR.
The target of data set [4] is G-protein coupled receptor 52 (Mus musculus) (UniProt P0C5J4). The data set can be described thus: In vivo agonist activity at GPR52 in po dosed C57BL/6 mouse assessed as inhibition of basal locomotor activity measured for 60 mins starting at 15 mins post-drug challenge. The settings on record: time 75.0 min. Format: functional, organism-based.
Data set [5] relates to Mus musculus. Kind of data set: Antipsychotic activity in 129Sv/Ev mouse assessed as inhibition of MK801-induced disruption of prepulse inhibition at 10 mg/kg, po co-administered with haloperidol at 15 mins prior to MK801 challenge and measured after 15 mins. It is filed as functional, organism-based. The settings on record: time 30.0 min.
Data set [6] is described as follows: Induction of hyperprolactinemia in Sprague-Dawley rat assessed as increase in prolactin release in plasma at 1 to 100 mg/kg, po measured after 60 mins by ELISA. It is filed as organism-based. Particulars: in vivo, 1 h, dose 1-100 mg/kg. In general terms: ELISA stands for enzyme-linked immunosorbent assay.
Data set [7] in a line: Induction of catalepsy in Sprague-Dawley rat assessed as increase in latency to move both forepaws at 5 to 100 mg/kg, po measured after 45 mins. It is filed as organism-based. The settings on record: in vivo, 0.75 h, dose 5-100 mg/kg.
Data set [8] has as its system Rattus norvegicus. Kind of data set: Antipsychotic activity in Sprague-Dawley rat assessed as inhibition of amphetamine-induced disruption of prepulse inhibition at 5 to 20 mg/kg, po administered 15 mins prior to amphetamine challenge and measured after 15 mins. Format: functional, organism-based. The settings on record: dose 5-20 mg/kg, time 30.0 min.
In data set [9] the test system is Rattus norvegicus. Kind of data set: Antipsychotic activity in Sprague-Dawley rat assessed as inhibition of MK801-induced disruption of prepulse inhibition at 5 to 20 mg/kg, po administered 15 mins prior to […] and measured after 15 mins. It is filed as functional, organism-based. Particulars: dose 5-20 mg/kg, time 30.0 min.
The subject of data set [10] is Rattus norvegicus. The data set can be described thus: Inhibition of haloperidol-induced hyperprolactinemia in Sprague-Dawley rat assessed as reduction in prolactin release in plasma at 10 mg/kg, po administered 30 mins prior to 0.3 mg/kg haloperidol challenge and measured after 60 mins by ELISA. Format: functional, organism-based. Particulars: time 90.0 min.
In data set [11] the test system is Mus musculus. Kind of data set: Increase in PPI in 129Sv/Ev mouse with low PPI at 10 mg/kg, po measured after 30 mins. Format: functional, organism-based.
The nature of data set [12]: Toxicity in Sprague-Dawley rat assessed as inhibition of basal locomotor activity at 20 mg/kg, po. It is filed as organism-based. Particulars: in vivo.
The subject of data set [13] is Rattus norvegicus. The data set can be described thus: Antipsychotic activity in Sprague-Dawley rat assessed as inhibition of amphetamine-stimulated locomotor activity at 0.5 to 20 mg/kg, po administered 15 mins prior to amphetamine stimulation and measured for 30 to 60 mins post-drug dosage. Format: functional, organism-based. Particulars: dose 0.5-20 mg/kg, time 30-60 min.

Data set [14] in a line: Induction of hyperprolactinemia in Sprague-Dawley rat assessed as increase in prolactin release in plasma at 0.1 to 1 mg/kg, po measured after 60 mins by ELISA. Particulars: in vivo, 1 h, dose 0.1-1 mg/kg. Format: organism-based.
The nature of data set [15]: Induction of catalepsy in Sprague-Dawley rat assessed as increase in latency to move both forepaws at 0.1 to 1 mg/kg, sc measured after 45 mins. Format: organism-based. Particulars: in vivo, 0.75 h, dose 0.1-1 mg/kg.

Take `O=C(NCCO)c1cccc2c1CCN2c1cc(Cc2cc(F)cc(Cl)c2)ccn1`: in data set [1], the Kp at 1 h turned out to be 5.45. Besides, the inhibition in data set [2] was 79%.
Consider `O=C(NCCO)c1c(F)ccc2c1CCN2c1cc(Cc2cc(F)c(F)c(F)c2)ccn1`, for which the inhibition in [2] was found to be 68%.
In the case of `NC(=O)c1cccc2c1CCN2c1cc(Cc2cccc(C(F)(F)F)c2)ccn1`, the Kp at 1 h in data set [3] came out at 4.49.
On to `O=C(NCCO)c1cccc2c1CCN2c1cc(Cc2cccc(C(F)(F)F)c2)ccn1`, for which the ED50 in [4] was 2.7 mg/kg. Also, the outcome with Mus musculus [5], in the data set with Rattus norvegicus [8], in the data set on Rattus norvegicus [9], in the data set with Mus musculus [11] and in the data set on Rattus norvegicus [13] was Active. The Activity entry in [6] is on record as “Non-Toxic”; in data set [7] it was “Non-Toxic”; in data set [12], “Toxic”. In addition, in [3], the Kp at 1 h came to 3.51. In addition, in [2], the inhibition came to 70%. Moreover, the inhibition entry in the data set on Rattus norvegicus [10] is “Active”.
Regarding `NC(=O)c1cccc2c1CCN2c1cc(Cc2cncc(C(F)(F)F)c2)ccn1`, in data set [1], the Kp at 1 h was determined as 4.67.
As for `NC(=O)c1cccc2c1CCN2c1cc(Cc2cc(F)cc(Cl)c2)ccn1`, the Kp at 1 h in data set [1] was 12.4.
For the molecule `O=C(NCCO)c1c(F)ccc2c1CCN2c1cc(Cc2cccc(C(F)(F)F)c2)ccn1`, the Kp at 1 h in [1] was found to be 1.67.
Consider `COc1ccc(Cc2ccnc(N3CCc4c(C(=O)NCCO)cccc43)c2)cc1F`, for which the Kp at 1 h in data set [1] stood at 0.87.
Regarding `NC(=O)c1cccc2c1CCN2c1cc(Cc2ccc(F)c(C(F)(F)F)c2)ccn1`, the inhibition in [2] is 61%.
As for `C[C@@H](O)CNC(=O)c1cccc2c1CCN2c1cc(Cc2cc(F)c(F)c(F)c2)ccn1`, the inhibition in data set [2] stood at 68%.
Consider `O=C(NC1CCN(CCO)CC1)c1cccc2c1CCN2c1cc(Cc2ccc3c(c2)CCO3)ccn1`, for which the Kp at 1 h in data set [1] was determined as 0.16.
Consider `COc1ccc(Cc2ccnc(N3CCc4c3ccc(F)c4C(=O)NC[C@@H](F)CO)c2)cc1F`, for which the inhibition in data set [2] turned out to be 62%.
As for `NC(=O)c1cccc2c1CCN2c1cc(Cc2ccc3occc3c2)ccn1`, the inhibition in data set [2] stood at 81%.
On to `O=C(NC[C@@H](F)CO)c1cccc2c1CCN2c1cc(Cc2cc(F)c(F)c(F)c2)ccn1`, for which the Kp at 1 h in data set [1] is 2.85. Moreover, the inhibition in data set [2] was 70%.
`O=C(CCCN1CCC(O)(c2ccc(Cl)cc2)CC1)c1ccc(F)cc1` [HALOPERIDOL]: the Activity result in data set [14] and in [15] was “Toxic” in each case.
Regarding `NC(=O)c1cccc2c1CCN2c1cc(Cc2ccc(F)c(Cl)c2)ccn1`, the Kp at 1 h in data set [1] amounted to 7.76.
Regarding `COC[C@@H](O)CNC(=O)c1cccc2c1CCN2c1cc(Cc2cc(F)c(F)c(F)c2)ccn1`, the inhibition in [2] came to 72%.
Consider `CC(=O)c1cccc(Cc2ccnc(N3CCc4c(C(N)=O)cccc43)c2)c1`, for which, in data set [1], the Kp at 1 h was 1.36. Besides, the inhibition in data set [2] stood at 72%.
With `COc1ccc(Cc2ccnc(N3CCc4c(C(=O)NC[C@@H](F)CO)cccc43)c2)cc1F`, in [2], the inhibition came out at 67%.
Consider `O=C(NCCO)c1cccc2c1CCN2c1cc(Cc2cc(F)c(F)c(F)c2)ccn1`, for which the Kp at 1 h in data set [1] is 3. Also, in [2], the inhibition was 65%.
Take `COc1ccc(Cc2ccnc(N3CCc4c(C(N)=O)cccc43)c2)cc1F`: the Kp at 1 h in data set [1] amounted to 6.32. Moreover, in data set [2], the inhibition was 66%.
